The values below come from PubChem BioAssay (NCI).

Test systems include EKVX NSCLC; HOP-62 NSCLC; OVCAR-4 ovarian; CCRF-CEM leukemia; KM12 colon; COLO 205 colon; OVCAR-8 ovarian; NCI-H226 lung; CAKI-1 renal; SF-268 CNS; OVCAR-3 ovarian; SNB-75 CNS; NCI-H460 lung; A498 renal; DU-145 prostate.
What all share (assay): NCI tumour cell line growth inhibition, 48 h

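Briefly, cells in 96-well plates were exposed to five compound concentrations for 48 h, and endpoints were estimated by linear interpolation. TGI is the concentration that stops growth completely.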 Bounds are passed on as bounds.

As for `CC(C)c1cc(C(C)C)c(P2(=O)CC3C(Cl)(Cl)C3(C)C2)c(C(C)C)c1` (stereo not given), the TGI in the experiment with EKVX NSCLC amounted to 31 µM; with HOP-62 NSCLC, 29 µM; in the experiment with OVCAR-4 ovarian it was 11.8 µM; in the experiment on CCRF-CEM leukemia, 6.03 µM; in the experiment with KM12 colon, 28.4 µM; in the experiment on COLO 205 colon it was 25 µM. Further, the TGI with OVCAR-8 ovarian came out at 27.8 µM; in the experiment on NCI-H226 lung, 34.3 µM; in the experiment on CAKI-1 renal it was 9.6 µM; with SF-268 CNS, 25.3 µM; in the experiment on OVCAR-3 ovarian it was 20.4 µM; in the experiment on SNB-75 CNS it was 24.8 µM. The TGI with NCI-H460 lung was determined as 24.4 µM; in the experiment on A498 renal it was 26.9 µM; with DU-145 prostate it was 28.9 µM.

Turning to `COc1ccc(N=C/C=C/C(=C/COC(C)=O)OC(C)=O)cc1`, the TGI in the experiment with EKVX NSCLC was > 100 µM; with HOP-62 NSCLC, > 100 µM; with OVCAR-4 ovarian, 93.8 µM; with CCRF-CEM leukemia, > 100 µM; with KM12 colon, > 100 µM; in the experiment on COLO 205 colon, 73.5 µM. In addition, the TGI in the experiment on OVCAR-8 ovarian was > 100 µM; in the experiment on NCI-H226 lung, > 100 µM; with CAKI-1 renal, 63.8 µM; with SF-268 CNS, 86 µM; in the experiment on OVCAR-3 ovarian, > 100 µM; in the experiment on SNB-75 CNS, > 100 µM. The figures for the TGI in the experiment with NCI-H460 lung, in the experiment on A498 renal and in the experiment on DU-145 prostate were 98.6 µM, 62.9 µM and > 100 µM, respectively.

On to `O=C1C(c2c(O)n(-c3ccccc3)c3ccccc23)=Nc2ccccc21`, for which the TGI in the experiment with EKVX NSCLC was 83.2 µM; in the experiment with HOP-62 NSCLC, > 100 µM; in the experiment with OVCAR-4 ovarian, > 100 µM; in the experiment with CCRF-CEM leukemia, > 100 µM; in the experiment on KM12 colon it was > 100 µM; in the experiment with COLO 205 colon, 66.3 µM. Besides, the TGI with OVCAR-8 ovarian was > 100 µM; in the experiment on NCI-H226 lung, 70 µM; with CAKI-1 renal, > 100 µM; with SF-268 CNS, > 100 µM; with OVCAR-3 ovarian, > 100 µM; in the experiment on SNB-75 CNS it was 40.4 µM. Moreover, the values for the TGI in the experiment with NCI-H460 lung, in the experiment with A498 renal and in the experiment with DU-145 prostate were > 100 µM, 75.7 µM and > 100 µM, respectively.

For `CC(=O)Nc1ccccc1S(=O)(=O)c1c(-c2c(C)c(Cl)c(C)c(Cl)c2C)noc1C`, the TGI was > 100 µM with EKVX NSCLC; 50 µM in the experiment on HOP-62 NSCLC; 35.6 µM with OVCAR-4 ovarian; 71.2 µM with CCRF-CEM leukemia; > 100 µM with KM12 colon; > 100 µM with COLO 205 colon. Moreover, the TGI with OVCAR-8 ovarian is > 100 µM; in the experiment on NCI-H226 lung it was 78.8 µM; with CAKI-1 renal it was 79.3 µM; in the experiment with SF-268 CNS, > 100 µM; in the experiment with OVCAR-3 ovarian, > 100 µM; in the experiment with SNB-75 CNS, 34.6 µM. Besides, the TGI in the experiment with NCI-H460 lung, in the experiment with A498 renal and in the experiment with DU-145 prostate was > 100 µM in each case.

`COC(=O)C1CCCCCCCCCCC12SCCCS2` (stereo not given): the TGI with EKVX NSCLC stood at 35.6 µM; in the experiment with HOP-62 NSCLC, 41.2 µM; with OVCAR-4 ovarian, 38.7 µM; with CCRF-CEM leukemia, 51.1 µM; in the experiment on KM12 colon it was 36 µM; in the experiment with COLO 205 colon, 37.4 µM. In addition, the TGI amounted to 48.8 µM in the experiment with OVCAR-8 ovarian; 42.8 µM with NCI-H226 lung; 96.3 µM with CAKI-1 renal; 56.5 µM with SF-268 CNS; 41 µM with OVCAR-3 ovarian; 81.2 µM with SNB-75 CNS. The TGI in the experiment on NCI-H460 lung was > 100 µM; in the experiment with A498 renal, 49.7 µM; in the experiment with DU-145 prostate, 39.2 µM.

Regarding `COC(=O)[C@@H](COC(=O)/C=C/c1ccc(OC(C)=O)c(OC(C)=O)c1)NC(=O)/C=C/c1ccc(OC(C)=O)c(OC(C)=O)c1`, the TGI in the experiment on EKVX NSCLC was 71.5 µM; in the experiment with HOP-62 NSCLC it was 75.5 µM; in the experiment on OVCAR-4 ovarian, 57.8 µM; in the experiment with CCRF-CEM leukemia, > 100 µM; in the experiment with KM12 colon, 94.6 µM; in the experiment on COLO 205 colon it was 35.3 µM. Moreover, the TGI was > 100 µM in the experiment with OVCAR-8 ovarian; > 100 µM in the experiment on NCI-H226 lung; 48.1 µM in the experiment on CAKI-1 renal; > 100 µM in the experiment on SF-268 CNS; 50 µM in the experiment with OVCAR-3 ovarian; > 100 µM with SNB-75 CNS. Moreover, the figures for the TGI in the experiment with NCI-H460 lung, in the experiment with A498 renal and in the experiment on DU-145 prostate were 47 µM, > 100 µM and 60.7 µM, respectively.
